“And” between values parts separate entries of the source, which are not always exact repeats. Equal entries are not always repeated. “Also recorded” adds a separate entry of the source. Where two headings read alike, the source gives them in different places. Non-standard residues stand in square brackets, D forms with d. Residues, ends and D or L forms follow the SMILES beside them. *: point of attachment. Hexenoyl(2E,4S-Me) = CC[C@H](C)/C=C/C(=O)*; Leu(3R-OH) = CC(C)[C@@H](O)[C@H](N)C(=O)O; NH(1-CH2NMe2-cBu) = CN(C)CC1(N*)CCC1; Gly(octyl) = CCCCCCCC[C@H](N)C(=O)O; Oxazole4CO(2-Me) = Cc1nc(C(=O)*)co1; hCha = N[C@@H](CCC1CCCCC1)C(=O)O; X17 = C[C@@H](CN1CCOCC1)N*; Aib = CC(C)(N)C(=O)O; βAla = NCCC(=O)O
Tests used:
[1] = Cytotoxicity assay on L6-cells (Alamar Blue); conditions: rat, L6 rat myoblast cells
Experimental: (§1) Testing of compounds against Plasmodium falciparum (K1 strain), Trypanosoma brucei rhodesiense (STIB 900 strain), Trypanosoma cruzi trypomastigote forms (Tulahuen strain), and Leishmania donovani (strain MHOM/ET/67/L82) was performed in 96 well plates at concentrations in serial dilutions. Tests were done in triplicate. IC50 values against the parasites as well as cytotoxic effects against rat myoblast (L6-cells) were determined by serial dilution and repeated twice.

[2] = system: rat myoblast (L6-cells); assay: Cytotoxicity assay on L6-cells (Alamar Blue); conditions: Rattus norvegicus, Myoblast, 70 h
Experimental: as §1

[3] = system: Plasmodium falciparum; assay: 3H-hypoxanthine incorporation assay against Plasmodium falciparum; format: cell-based; conditions: In vitro inhibition, read-out: P.falc NF5
Experimental: (§2) Tests were done in triplicate.
IC50 values were calculated by linear interpolation.

[4] = system: Trypanosoma brucei rhodesiense (STIB 900 strain); assay: Alamar Blue assay against Trypanosoma brucei rhodesiense grown in axenic medium; format: cell-based; conditions: In vitro inhibition, read-out: T.b.rhod.
Summary of the method: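 T. b. rhodesiense STIB 900 cultured in axenic medium and exposed to samples in an Alamar Blue viability assay, run in triplicate. IC50 calculated from the readout; melarsoprol served as reference drug.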

[5] = Cytotoxicity assay on L6-cells (Alamar Blue); conditions: rat, Cytotox L6, Cytotoxicity against rat myoblast cells (L6)
[6] = system: Trypanosoma brucei brucei; assay: Acute mouse sleeping sickness model (in vivo antitrypanosomal activity); conditions: for Mean day of relapse / Mean day of survival / Day of relapse / Parasitaemia day 7 / Parasitaemia day 10 / Parasitaemia day 14 / Parasitaemia day 17 / Parasitaemia day 21 / Parasitaemia day 24 / Parasitaemia day 28 / Parasitaemia day 31 / Survival days: 4 treatment days; for Mean day of relapse / Mean day of survival / animals surviving until day 31: group of four mice; for Day of relapse / Parasitaemia day 7 / Parasitaemia day 10 / Parasitaemia day 14 / Parasitaemia day 17 / Parasitaemia day 21 / Parasitaemia day 24 / Parasitaemia day 28 / Parasitaemia day 31 / Survival days: individual mice; for parasitaemia on day 7: day 7 post infection; for reduction of parasitaemia compared to untreated controls: four mice; on Parasitaemia day 7: key: 0 = no parasite in 20 fields of view; ((+)) = 1 Trypanosome in 20 fields of view; (+) = 1 Trypanosome per field of view; + = 2 - 5 Trypanosomes per field of view; ++ = 6 - 20 Trypanosomes per field of view, the mouse is killed; +++ = > 20 Trypanosomes per field of view, the mouse is killed
Experimental: This model mimics the first stage of the human African trypanosomiasis. Adult female NMRI mice were purchased from Janvier (St. Berthevin, France). They weighed between 20 and 25 g at the beginning of the study and were kept under standard conditions at 22 °C and 60-70% humidity in macro Ion type III cages with food pellets and water ad libitum. The samples were first dissolved in 100% DMSO, followed by addition of distilled H2O to a final DMSO concentration of 10%. For determination of the in vivo antitrypanosomal activity, mice were infected intraperitoneally with 1 x 10^4 STIB900 bloodstream forms. […] A control group of four mice was infected, but remained untreated. The determination of the parasitaemia was done on days 7, 10, 14, 17, 21, 24, 28, and 31 post infection. To do this 6 µL of tail blood were diluted in 24 µL sodium citrate (3.2%), whereby the first µL was discarded to obtain circulating blood. Five µL of this mixture were transferred to a glass slide and covered with an 18 x 18 mm cover slide. The sample was examined under a light microscope (200-fold magnification) and parasites were counted in 3 of the 16 squares of the grid.

[7] = system: Trypanosoma cruzi trypomastigote forms (Tulahuen strain); assay: Intracellular Trypanosoma cruzi assay in L6-cells, beta-galactosidase/CPRG readout; format: cell-based; conditions: In vitro inhibition, read-out: T.cruzi.
Summary of the method: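 L6 rat myoblasts infected with Tulahuen C2C4 LacZ T. cruzi; after incubation, CPRG/Nonidet substrate added and colour developed 2–6 h. Absorbance at 540 nm; IC50 calculated; triplicate tests.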

[8] = system: intracellular Leishmania donovani (L.don. InMac); assay: Intracellular Leishmania donovani assay (L.don. InMac); format: cell-based; conditions: In vitro inhibition
Description: as §2

[9] = system: Axenically grown Leishmania donovani amastigotes (strain MHOM/ET/67/L82); assay: Axenic Leishmania donovani amastigote resazurin assay; format: cell-based; conditions: In vitro inhibition, read-out: L.don. ax
Summary of the method: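 Strain MHOM/ET/67/L82 amastigotes grown axenically and tested in triplicate by resazurin assay. Plates developed 2-4 hours, fluorescence read at 536 nm excitation/588 nm emission and expressed as percentage of negative control.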

[10] = system: Plasmodium falciparum K1 strain; assay: microbe, parasite or virus in culture
Experimental: as §1
Determination of activity against Plasmodium falciparum K1 strain was done using a modified version of the ^3H-hypoxanthine incorporation assay by Trager and Jensen (Trager W. and Jensen, J.B. Science 1976; 193:673-675). After incubation the plates were harvested using a Betaplate cell harvester (Wallac, Switzerland) onto glass-fiber filters and washed. The dried filters were inserted into plastic foils with 10 ml scintillation fluid. The radioactivity was counted with a Betaplate liquid scintillation counter (Wallac, Switzerland) as counts per minute per well at each drug concentration and compared to the untreated controls. […] IC50 values were calculated by linear interpolation. All assays were run in duplicate and repeated two times.

[11] = system: rat myoblast (L6-cells); assay: Cytotoxicity assay on L6-cells (Alamar Blue); conditions: read-out: Cytotox L6; Cytotoxicity against rat myoblast cells (L6)
[12] = 3 mg/kg per injection, 2 per day, i.p.
[13] = 3 mg/kg twice a day for 4 days, intraperitoneally
[14] = 30 mg/kg per injection, 1 per day, p.o.

SMILES: COc1cc([C@@H]2c3cc4c(cc3[C@H](O)[C@H]3COC(=O)[C@H]23)OCO4)cc(OC)c1OC [Podophyllotoxin]
- IC50 at 70 h [1]: 0.0193 µM
- IC50 [2]: 0.05 ± 0.01 µM

SMILES: Cc1nc(C(=O)N2CCC[C@H]2C(=O)N[C@@H](CCC2CCCCC2)C(=O)N[C@@H](CC(C)C)C(=O)NC(C)(C)C(=O)N[C@@H](CC(C)C)C(=O)N[C@@H](CC(C)C)C(=O)NC(C)(C)C(=O)NC(C)(C)C(=O)NCCC(=O)NC2(CN(C)C)CCC2)co1 [Compound 6025, (2S)-2-[(2S)-4-cyclohexyl-2-{[(2S)-1-(2-methyl-1,3-oxazole-4-carbonyl)pyrrolidin-2-yl]formamido}butanamido]-N-(1-{[(1S)-1-{[(1S)-1-({1-[(1-{[2-({1-[(dimethylamino)methyl]cyclobutyl}carbamoyl)ethyl]carbamoyl}-1-methylethyl)carbamoyl]-1-methylethyl}carbamoyl)-3-methylbutyl]carbamoyl}-3-methylbutyl]carbamoyl}-1-methylethyl)-4-methylpentanamide] ({Oxazole4CO(2-Me)}-P[hCha]L[Aib]LL[Aib][Aib][βAla]-{NH(1-CH2NMe2-cBu)})
- IC50 [3]: 20.9 µM
- IC50 [4]: 0.0005 µM
- IC50 at 70 h [5]: 1.91 µM
- Mean day of relapse [6, 12]: 15 days
- Mean day of survival [6, 12]: 28 days
- Day of relapse [6, 12]: 10 day and 17 day (2×)
- Parasitaemia day 7 [6, 12]: 0
- Parasitaemia day 10 [6, 12]: 0 (3×) and ((+)) (((+)) = 1 Trypanosome in 20 fields of view)
- Parasitaemia day 14 [6, 12]: 0
- Parasitaemia day 17 [6, 12]: 0 and ((+)) (((+)) = 1 Trypanosome in 20 fields of view) and ++ (++ = 6 - 20 Trypanosomes per field of view, the mouse is killed) and (+) ((+) = 1 Trypanosome per field of view)
- Parasitaemia day 21 [6, 12]: 0 (2×) and (+) ((+) = 1 Trypanosome per field of view)
- Parasitaemia day 24 [6, 12]: 0 (2×) and ((+)) (((+)) = 1 Trypanosome in 20 fields of view)
- Parasitaemia day 28 [6, 12]: 0
- Parasitaemia day 31 [6, 12]: 0 (2×) and (+) ((+) = 1 Trypanosome per field of view)
- Survival days [6, 12]: 31 days (3×) and 17 days
- animals surviving treatment [6, 13]: all animals survived treatment
- parasitaemia on day 7 [6, 13]: no observable parasitaemia
- reduction of parasitaemia compared to untreated controls [6, 13]: significant reduction of parasitaemia
- animals surviving until day 31 [6, 13]: three out of four
- animals with no observable parasitaemia at day 31 ([6]; 3 mg/kg twice a day for 4 days, intraperitoneally, of the three survivors): 2
- Mean day of relapse [6, 14]: 15 days
- Mean day of survival [6, 14]: 21 days
- Day of relapse [6, 14]: 17 day (2×) and 14 day and 10 day
- Parasitaemia day 7 [6, 14]: 0
- Parasitaemia day 10 [6, 14]: 0 (3×) and ((+)) (((+)) = 1 Trypanosome in 20 fields of view)
- Parasitaemia day 14 [6, 14]: 0 (2×) and (+) ((+) = 1 Trypanosome per field of view) (2×)
- Parasitaemia day 17 [6, 14]: + (+ = 2 - 5 Trypanosomes per field of view); also recorded: ++ (++ = 6 - 20 Trypanosomes per field of view, the mouse is killed)
- Parasitaemia day 21 [6, 14]: ((+)) (((+)) = 1 Trypanosome in 20 fields of view)
- Parasitaemia day 24 [6, 14]: (+) ((+) = 1 Trypanosome per field of view)
- Parasitaemia day 28 [6, 14]: + (+ = 2 - 5 Trypanosomes per field of view)
- Parasitaemia day 31 [6, 14]: +++ (+++ = > 20 Trypanosomes per field of view, the mouse is killed)
- Survival days [6, 14]: 20 days and 17 days (2×) and 31 days
- animals surviving treatment ([6]; mouse, in vivo, po, 30 mg/kg): all animals survived treatment
- relapse by day 17 ([6]; orally at 30 mg/kg once a day): all had relapsed
- parasitaemia on day 7 ([6]; orally at 30 mg/kg once a day): no observable parasitaemia
- reduction of parasitaemia compared to untreated controls ([6]; orally at 30 mg/kg once a day): significant reduction of parasitaemia
- animals surviving until day 31 ([6]; orally at 30 mg/kg once a day): one
- IC50 [7]: 0.215 µM
- IC50 [8]: 0.0411 µM
- IC50 [9]: 31.3 µM

SMILES: CCN(CC)CCCC(C)Nc1ccnc2cc(Cl)ccc12 (centres unmarked) [Chloroquine]
- IC50 ([10]; K1): 0.05 ± 0.01 µM
- IC50 ([10]; K1, read-out: P.falc NF5): 0.00625 µM

SMILES: CCCCCCCC[C@H](NC(=O)[C@@H]1CCCN1C(=O)/C=C/[C@@H](C)CC)C(=O)N[C@H](C(=O)NC(C)(C)C(=O)N[C@@H](CC(C)C)C(=O)N[C@@H](CC(C)C)C(=O)NC(C)(C)C(=O)NC(C)(C)C(=O)NCCC(=O)N[C@@H](C)CN1CCOCC1)[C@H](O)C(C)C [Compound 5573, (2S)-N-[(1S,2R)-2-hydroxy-3-methyl-1-[(1-methyl-1-{[(1S)-3-methyl-1-{[(1S)-3-methyl-1-{[1-methyl-1-({1-methyl-1-[(2-{[(2S)-1-(morpholin-4-yl)propan-2-yl]carbamoyl}ethyl)carbamoyl]ethyl}carbamoyl)ethyl]carbamoyl}butyl]carbamoyl}butyl]carbamoyl}ethyl)carbamoyl]butyl]-2-{[(2S)-1-[(2E,4S)-4-methylhex-2-enoyl]pyrrolidin-2-yl]formamido}decanamide] ({Hexenoyl(2E,4S-Me)}-P[Gly(octyl)][Leu(3R-OH)][Aib]LL[Aib][Aib][βAla]-X17)
- IC50 at 70 h [5]: 0.512 µM
- IC50 [11]: 0.738 µM
- IC50 [8]: 0.0204 µM

— patent publication EP3345917A1, “ANTIPROTOZOAL COMPOUNDS” (Bacoba AG, priority 2017, dated 2018)
